Data on 7 molecules can be found in patent publication US20240174727A1, “LONG-ACTING NATRIURETIC PEPTIDES AND USES THEREOF” (Eli Lilly and Company, priority 2022, published 2024).

Like-named read-outs stand apart in the source and are kept apart here. Numbered stars: 1 amine (or outer) side, 2 acyl side, 3 side chain; on linkers, the order of the positions; unused ones are H or OH. Bridge positions count the residues as written; N and C are the ends. Square brackets hold non-standard residues; d marks the D form. * marks the point of attachment. PEG24 = NCCOCCOCCOCCOCCOCCOCCOCCOCCOCCOCCOCCOCCOCCOCCOCCOCCOCCOCCOCCOCCOCCOCCOCCOCCC(=O)O; C20 diacid = O=C(O)CCCCCCCCCCCCCCCCCCC(=O)*; γGlu = O=C(O)[C@H](CCC(=O)[*:2])N[*:1]; 4Pal = N[C@@H](Cc1ccncc1)C(=O)O; Dap = NC[C@H](N)C(=O)O; CH2 = C([*:1])[*:2]; βAla = NCCC(=O)O

The nature of data set [1]: Pharmacokinetics in male Sprague Dawley rats. Conditions: rat, sc, mean, single subcutaneous administration of 200 nMol/kg, plasma; for half-life: read-out: t½ (converted). Type of data set: in vivo. How it is done:
The pharmacokinetics of the exemplary analogs are evaluated following a single subcutaneous administration of […] to male Sprague Dawley rats. Blood samples are collected over 120 hours, and resulting individual plasma concentrations are used to calculate pharmacokinetic parameters. Peptide plasma (K3 EDTA) concentrations are determined using a qualified LC/MS method that measured the intact mass of the ANP polypeptide. Each peptide and an analog as an internal standard are extracted from 100% specie specified plasma using methanol with 0.1% formic acid. A Thermo Q-Exactive, High Resolution Instrument, and a Thermo Easy Spray PepMap are combined for LC/MS detection.

Data set [2] addresses T1, human NPRA (Homo sapiens, UniProt P16066).
T1 construct: Full-Length cDNA Cloning and Generation of Cell Lines Overexpressing Natriuretic Peptide Receptors (NPRs); expressed in transfected cells; host or cells: Jump-in T-Rex HEK293 cells, pJTI R4 CMV-TO MCS pA vector, tetracycline induction
T1 sequence (P16066 33-1061): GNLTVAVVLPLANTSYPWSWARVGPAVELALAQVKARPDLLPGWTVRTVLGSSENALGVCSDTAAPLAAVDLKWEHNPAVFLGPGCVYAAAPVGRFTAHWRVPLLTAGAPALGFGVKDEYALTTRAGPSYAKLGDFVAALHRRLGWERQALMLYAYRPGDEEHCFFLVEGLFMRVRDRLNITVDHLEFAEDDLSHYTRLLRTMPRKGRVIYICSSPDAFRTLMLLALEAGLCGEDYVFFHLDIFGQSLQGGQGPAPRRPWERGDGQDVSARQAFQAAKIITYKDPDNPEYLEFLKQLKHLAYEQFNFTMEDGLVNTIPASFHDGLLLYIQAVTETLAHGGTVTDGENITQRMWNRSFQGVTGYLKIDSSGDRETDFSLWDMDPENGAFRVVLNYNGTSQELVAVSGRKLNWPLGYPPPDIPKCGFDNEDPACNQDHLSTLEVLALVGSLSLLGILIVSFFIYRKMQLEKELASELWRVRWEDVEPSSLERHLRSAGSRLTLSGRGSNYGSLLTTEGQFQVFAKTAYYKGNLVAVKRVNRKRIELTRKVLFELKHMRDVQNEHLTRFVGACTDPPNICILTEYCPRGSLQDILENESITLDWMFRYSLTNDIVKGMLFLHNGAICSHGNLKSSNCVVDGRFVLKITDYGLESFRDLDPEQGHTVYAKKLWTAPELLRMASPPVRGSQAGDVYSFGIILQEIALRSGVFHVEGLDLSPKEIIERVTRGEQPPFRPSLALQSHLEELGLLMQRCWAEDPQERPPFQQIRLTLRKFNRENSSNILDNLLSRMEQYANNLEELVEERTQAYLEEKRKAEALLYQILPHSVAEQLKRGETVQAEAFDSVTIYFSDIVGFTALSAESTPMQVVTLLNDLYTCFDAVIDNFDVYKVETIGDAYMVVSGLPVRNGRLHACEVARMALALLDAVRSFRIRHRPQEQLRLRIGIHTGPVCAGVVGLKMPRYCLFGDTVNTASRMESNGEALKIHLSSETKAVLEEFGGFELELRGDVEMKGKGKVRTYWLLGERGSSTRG
Kind of data set: Human NPRA cGMP activity assay (HTRF) in HEK293 cells overexpressing NPRA. Type of data set: cell-based. The gist of the method:
(§1)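 cGMP measured by HTRF and scaled between buffer (minimum) and 100 nM amidated rat ANP (maximum). Polypeptides in 10-fold steps from 10 μM to 1 pM, 0.5% DMSO, 0.5 mM IBMX, 40 min at room temperature, on induced NPRA-overexpressing HEK293 cells.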

Data set [3] has as its target T2, rat NPRA (Rattus norvegicus, UniProt P18910).
T2 construct: Full-Length cDNA Cloning and Generation of Cell Lines Overexpressing Natriuretic Peptide Receptors (NPRs); expressed in transfected cells; host or cells: Jump-in T-Rex HEK293 cells, pJTI R4 CMV-TO MCS pA vector, tetracycline induction
T2 sequence (P18910 29-1057): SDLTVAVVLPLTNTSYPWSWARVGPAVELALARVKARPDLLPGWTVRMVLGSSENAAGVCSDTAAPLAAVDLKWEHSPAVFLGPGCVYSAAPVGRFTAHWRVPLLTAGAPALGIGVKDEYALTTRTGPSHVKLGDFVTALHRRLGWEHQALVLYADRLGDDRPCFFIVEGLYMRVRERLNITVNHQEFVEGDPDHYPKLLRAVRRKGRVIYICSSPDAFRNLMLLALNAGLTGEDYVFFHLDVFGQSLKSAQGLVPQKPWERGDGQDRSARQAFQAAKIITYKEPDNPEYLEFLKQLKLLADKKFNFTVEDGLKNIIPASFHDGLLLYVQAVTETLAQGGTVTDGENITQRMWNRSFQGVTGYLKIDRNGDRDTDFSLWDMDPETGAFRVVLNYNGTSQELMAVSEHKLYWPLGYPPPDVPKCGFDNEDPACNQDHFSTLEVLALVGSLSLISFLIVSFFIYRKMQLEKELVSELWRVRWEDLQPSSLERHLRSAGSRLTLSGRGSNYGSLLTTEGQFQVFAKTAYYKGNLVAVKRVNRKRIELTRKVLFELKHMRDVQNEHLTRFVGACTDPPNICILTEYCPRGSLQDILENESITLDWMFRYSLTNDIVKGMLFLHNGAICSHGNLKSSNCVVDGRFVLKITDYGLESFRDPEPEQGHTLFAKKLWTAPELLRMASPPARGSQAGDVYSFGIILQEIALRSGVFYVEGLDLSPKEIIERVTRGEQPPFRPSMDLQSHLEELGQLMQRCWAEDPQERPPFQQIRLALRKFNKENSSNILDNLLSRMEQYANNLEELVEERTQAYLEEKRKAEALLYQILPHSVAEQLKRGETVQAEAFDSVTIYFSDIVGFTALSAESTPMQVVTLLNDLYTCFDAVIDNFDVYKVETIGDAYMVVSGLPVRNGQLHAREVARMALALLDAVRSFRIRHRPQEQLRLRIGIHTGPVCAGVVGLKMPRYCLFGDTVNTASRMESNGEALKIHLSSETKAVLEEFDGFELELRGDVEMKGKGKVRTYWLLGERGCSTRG
Description: Rat NPRA cGMP activity assay (HTRF) in HEK293 cells overexpressing NPRA. Type of data set: cell-based. Conditions: assay buffer with 0.1% casein, read-out: cGMP Assay (EC50, pM) w/Casein rNPRA. The gist of the method: as §1

For the molecule “{C20 diacid-γGlu}-EKEKEKG[PEG24]S[4Pal]RRSSCFGGRIDRIGHQSGLGCPSFRHGGKSSGAPPPS-NH2 (linker 15-31 via CH2) [Example 75]”, in data set [1], the CL/F is 0.182 mL/min/kg and the half-life was 1020 min.

“{C20 diacid-γGlu}-EKEKEKG[PEG24]EK[βAla]RSSCFGGKIDRIGHYSGLGCPSFRHGSPSSGAPPPS-NH2 (linker 15-31 via CH2) [Example 6]” came in with an EC50 in data set [2] (cGMP Assay (EC50, pM) w/Casein hNPRA, assay buffer with 0.1% casein) of 1530 pM. In data set [1], the apparent clearance CL/F was 0.108 mL/min/kg and the half-life is 1020 min.

In data set [2] (cGMP Assay (EC50, pM) w/BSA hNPRA, assay buffer with 0.1% BSA), `CC[C@H](C)[C@@H]1NC(=O)[C@H](CCCNC(=N)N)NC(=O)[C@H](CC(=O)O)NC(=O)[C@H]([C@@H](C)CC)NC(=O)[C@H](CCCNC(=N)N)NC(=O)CNC(=O)CNC(=O)[C@H](Cc2ccccc2)NC(=O)[C@@H](NC(=O)[C@H](CO)NC(=O)[C@H](CO)NC(=O)[C@H](CCCNC(=N)N)NC(=O)[C@H](CCCNC(=N)N)NC(=O)[C@H](Cc2ccncc2)NC(=O)[C@H](CO)NC(=O)CNC(=O)[C@H](CCCCN)NC(=O)[C@H](CCC(=O)O)NC(=O)[C@H](CCCCN)NC(=O)[C@H](CCC(=O)O)NC(=O)[C@H](CCCCN)NC(=O)[C@H](CCC(=O)O)NC(=O)CC[C@H](NC(=O)CCCCCCCCCCCCCCCCCCC(=O)O)C(=O)O)CSSC[C@@H](C(=O)N2CCC[C@H]2C(=O)N[C@@H](CO)C(=O)N[C@@H](Cc2ccccc2)C(=O)N[C@@H](CCCNC(=N)N)C(=O)N[C@@H](Cc2c[nH]cn2)C(=O)NCC(=O)NCC(=O)N2CCC[C@H]2C(=O)N[C@@H](CO)C(=O)N[C@@H](CO)C(=O)NCC(=O)N[C@@H](C)C(=O)N2CCC[C@H]2C(=O)N2CCC[C@H]2C(=O)N2CCC[C@H]2C(=O)N[C@@H](CO)C(N)=O)NC(=O)CNC(=O)[C@H](CC(C)C)NC(=O)CNC(=O)[C@H](CO)NC(=O)[C@H](CCC(N)=O)NC(=O)[C@H](Cc2c[nH]cn2)NC(=O)CNC1=O` [Example 1] had an EC50 of 11600 pM. In data set [1], the apparent clearance (CL/F) is 0.343 mL/min/kg and the half-life was 660 min.

In the case of `CC[C@H](C)[C@@H]1NC(=O)[C@H](CCCNC(=N)N)NC(=O)[C@H](CC(=O)O)NC(=O)[C@H]([C@@H](C)CC)NC(=O)[C@H](CCCNC(=N)N)NC(=O)[C@H](CCCCN)NC(=O)CNC(=O)[C@H](Cc2ccccc2)NC(=O)[C@@H](NC(=O)[C@H](CO)NC(=O)[C@H](CO)NC(=O)[C@H](CCCNC(=N)N)NC(=O)CCNC(=O)[C@H](CCCCN)NC(=O)[C@H](CCC(=O)O)NC(=O)CCOCCOCCOCCOCCOCCOCCOCCOCCOCCOCCOCCOCCOCCOCCOCCOCCOCCOCCOCCOCCOCCOCCOCCOCCNC(=O)CNC(=O)[C@H](CCCCN)NC(=O)[C@H](CCC(=O)O)NC(=O)[C@H](CCCCN)NC(=O)[C@H](CCC(=O)O)NC(=O)[C@H](CCCCN)NC(=O)[C@H](CCC(=O)O)NC(=O)CC[C@H](NC(=O)CCCCCCCCCCCCCCCCCCC(=O)O)C(=O)O)CSCSC[C@@H](C(=O)N2CCC[C@H]2C(=O)N[C@@H](CO)C(=O)N[C@@H](Cc2ccccc2)C(=O)N[C@@H](CCCNC(=N)N)C(=O)N[C@@H](Cc2c[nH]cn2)C(=O)NCC(=O)N[C@@H](CO)C(=O)N2CCC[C@H]2C(=O)N[C@@H](CO)C(=O)N[C@@H](CO)C(=O)NCC(=O)N[C@@H](C)C(=O)N2CCC[C@H]2C(=O)N2CCC[C@H]2C(=O)N2CCC[C@H]2C(=O)N[C@@H](CO)C(N)=O)NC(=O)CNC(=O)[C@H](CC(C)C)NC(=O)CNC(=O)[C@H](CO)NC(=O)[C@H](CCC(N)=O)NC(=O)[C@H](Cc2c[nH]cn2)NC(=O)CNC1=O` [Example 4], the EC50 in data set [3] amounted to 22500 pM. In addition, in data set [1], the CL/F was 0.0717 mL/min/kg and the half-life was 900 min.

Take “{C20 diacid-γGlu}-EKEKEKG[PEG24]EK[βAla]RSSCFGGKIDRIGHQSGLGCPSFRHGSPSSGAPPPS-NH2 (linker 15-31 via CH2) [Example 7]”: in data set [1], the CL/F was 0.055 mL/min/kg and the half-life was 1140 min.

With `CC[C@H](C)[C@@H]1NC(=O)[C@H](CCCNC(=N)N)NC(=O)[C@H](CC(=O)O)NC(=O)[C@H]([C@@H](C)CC)NC(=O)[C@H](CCCNC(=N)N)NC(=O)CNC(=O)CNC(=O)[C@H](Cc2ccccc2)NC(=O)[C@@H](NC(=O)[C@H](CO)NC(=O)[C@H](CO)NC(=O)[C@H](CCCNC(=N)N)NC(=O)CCNC(=O)[C@H](CCCCN)NC(=O)[C@H](CCC(=O)O)NC(=O)CNC(=O)[C@H](CCCCN)NC(=O)[C@H](CCC(=O)O)NC(=O)[C@H](CCCCN)NC(=O)[C@H](CCC(=O)O)NC(=O)[C@H](CCCCN)NC(=O)[C@H](CCC(=O)O)NC(=O)CC[C@H](NC(=O)CCCCCCCCCCCCCCCCC(=O)O)C(=O)O)CSCSC[C@@H](C(=O)N2CCC[C@H]2C(=O)N[C@@H](CO)C(=O)N[C@@H](Cc2ccccc2)C(=O)N[C@@H](CCCNC(=N)N)C(=O)N[C@@H](Cc2c[nH]cn2)C(=O)NCC(=O)NCC(=O)N[C@@H](CCCCN)C(=O)N[C@@H](CO)C(=O)N[C@@H](CO)C(=O)NCC(=O)N[C@@H](C)C(=O)N2CCC[C@H]2C(=O)N2CCC[C@H]2C(=O)N2CCC[C@H]2C(=O)N[C@@H](CO)C(N)=O)NC(=O)CNC(=O)[C@H](CC(C)C)NC(=O)CNC(=O)[C@H](CO)NC(=O)[C@H](Cc2ccc(O)cc2)NC(=O)[C@H](Cc2c[nH]cn2)NC(=O)CNC1=O` [Example 76], the half-life in data set [1] (in vivo) was 1800 min. Besides, the CL/F in data set [1] was 0.118 mL/min/kg.

On to “{C20 diacid-γGlu}-EKEKEKGEKPRSSCFGG[Dap]IDRIGHQSGLGCPSFRHGSPSSGAPPPS-NH2 (linker 14-30 via CH2) [Example 139]”, for which the EC50 came out at 19700 pM in data set [2] (assay buffer with 0.1% casein, read-out: cGMP Assay (EC50, pM) w/Casein hNPRA) and 200000 pM in data set [3].
